In one assay the target is T1, hcGAS-FL (D191R) mutant (Homo sapiens, UniProt Q8N884, D191R).
T1 construct: The gene encoding full-length human cGAS (hcGAS-FL); 6xHis-SUMO (N, cleaved yes); made in house; host or cells: Escherichia coli BL21 (DE3)
Put plainly: Surface plasmon resonance (SPR). Type of assay: binding. On the procedure:
All SPR binding studies were performed with a Biacore 8 K instrument (GE Healthcare Life Sciences). hcGAS-FL / hcGAS-ΔN (1 mg mL^−1) was immobilized in a CM5 chip by EDC/NHS method. The tested peptide was diluted with running buffer (20 mM HEPES, pH 7.5, 125 mM KCl,10 mM MgCl2). All the samples contained the same concentration of DMSO (0.5%). The tested peptide was injected at a flow rate of 30 μL min^−1 for 200 s of association, followed by 200 s of disassociation at 25 °C. The final graphs were obtained by subtracting blank sensorgrams. The data were analyzed with Biacore Insight Evaluation software.
Supplementary Fig. 5. The binding site of XQ2 may locate at the cGAS-dsDNA interface. (a) The 2D schematic of docked structure of XQ2 with cGAS (PDB ID: 4O69). (b) Structure activity relationship (SAR) analysis of XQ2 a nd its analogues based on the docked structure of the peptides with cGAS. (c) FAM-ISD (40nM) was incubated with the indicated doses of hcGAS-FL or hcGAS-FL (D191R) mutant, and the polarization signal was detected by a microplate reader. (d) SPR analysis of the binding of hcGAS-FL (D191R) mutant with XQ2. The binding affinity (Kd) […]
Data are representative of three independent experiments in (c). (Data […]
Source data are provided as a Source Data file.
XQ- Sequence Inhibition % […]
On the technique in general: SPR reads the build-up and loss of mass on a sensor chip optically.

Another assay relates to Trex1^-/- mice. Nature of the assay: Trex1^-/- mice model of autoimmune disease (survival, H&E, heart qPCR, antinuclear antibody). The assay is classed as in vivo, mouse. Also noted: Score per animal, Heart (Fig. 7d) / Score per animal, Stomach (Fig. 7d) / Score per animal, Tongue (Fig. 7d) / Score per animal, Kidney (Fig. 7d) / Score per animal, Muscle (Fig. 7d): scale not given here; Ifnb1 mRNA level (Fig. 7e) / Cxcl10 mRNA level (Fig. 7e) / Il6 mRNA level (Fig. 7e): unit not given here. The source says: Aberrant accumulation of cytosolic self-dsDNA caused by loss-of-function mutations in Trex1 leads to overactivation of cGAS-STING pathway, which is associated with autoinflammatory diseases. To evaluate whether the optimized analogue XQ2B inhibits the overactivation of cGAS-STING pathway due to Trex1 deficiency, we first tested the effects of XQ2B on the expression of Ifnb1, Cxcl10 and Il6 in BMDMs harvested from Trex1^-/- mice (Supplementary Fig. 9a, b). […] We next evaluated the anti-inflammatory effect of XQ2B in Trex1^-/- mice. XQ2B (10 mg/kg) was intravenously injected into mice every other day. Six animals from each group were sacrificed on day seven to assess tissue pathology, and the rest (10 mice per group) were used to analyze survival for up to 11 days (Fig. 7b). […] Mice were killed and tissues were collected on day seven for histology and mRNA analysis.
C57BL/6 6–8 weeks old wild type (WT) mice were purchased from Gempharmatech. C57BL/6 Trex1^+/- mice were purchased from Cyagen. Trex1^-/- mice were generated by further mating the male and female Trex1^+/- mice, and 8-week-old male Trex1^-/- mice were used in the experiment. Mice were housed in groups of up to 5 mice/cage at 18 °C − 24 °C ambient temperatures with 40–60% humidity. Mice were maintained on a 12 h light/ dark cycle 6 am to 6 pm. Food and water were available ad libitum. Femurs and tibias were removed from sex-matched mice of 6–8 weeks old, and the ends were clipped. Marrow was pushed from bones by using a syringe, and cell clumps were broken apart into cell particles by pipetting in PBS, and passed through a 70 μm cell strainer. Cells were resuspended in red blood cell lysis buffer (Solarbio) for 5 min after being centrifuged with 200 × g for 5 min, and were resuspended in cell culture media (DMEM) with an additional M-CSF (50 ng/ml) after centrifugation, and then were seeded into a 12-well plate. Half of the cell culture media was replaced with a fresh medium on the third day, and performed a complete media change on the fifth day. BMDMs were used for subsequent experiments after the seventh day. All the animal experiments in these studies were approved and overseen by the ethics committee of the Laboratory Animal Center of Peking University Shenzhen Graduate School in accordance with the Policy on the Care, Welfare, and Treatment of Laboratory Animals. The assigned approval or accreditation number is AP0020005.
Tissues were resected and fixed successively in 4% paraformaldehyde, and embedded in paraffin according to the standard procedure, and then sectioned into 10-μm slices and placed on positively charged microscope slides. Sections of the brain were subjected to immunohistochemical (IHC) staining with an anti-HSV-1 antibody (Abcam, 1:100) and HRP-conjugated anti-rabbit IgG antibody (Cell Signaling, Cat# 7074, 1:200) according to standard procedures. Sections of the heart, stomach, tongue, kidney and muscle were stained with hematoxylin and eosin. Tissue sections were visualized using an Olympus IX73 microscope (20× Objective).
Anti-nuclear antibodies were performed with 1:160 diluted sera by using a FLUORO HEPANA TEST kit (MBL BEIJING BIOTECH) according to the manufacturer’s protocols.
Background: In qPCR the cycle at which signal appears reflects the starting amount.

Where [1] appears, read: 10 mg/kg i.v. every other day, day seven.

Several values for one entry are separate records, joined by “and”; a condition that tells them apart may be missing. Equal values may be shown once. Entries after “also recorded” stand apart in the source; their conditions may differ. Square brackets hold non-standard residues; d marks the D form. Peptide text beside a SMILES is read from it.

T1 sequence (Q8N884 whole entry D191R): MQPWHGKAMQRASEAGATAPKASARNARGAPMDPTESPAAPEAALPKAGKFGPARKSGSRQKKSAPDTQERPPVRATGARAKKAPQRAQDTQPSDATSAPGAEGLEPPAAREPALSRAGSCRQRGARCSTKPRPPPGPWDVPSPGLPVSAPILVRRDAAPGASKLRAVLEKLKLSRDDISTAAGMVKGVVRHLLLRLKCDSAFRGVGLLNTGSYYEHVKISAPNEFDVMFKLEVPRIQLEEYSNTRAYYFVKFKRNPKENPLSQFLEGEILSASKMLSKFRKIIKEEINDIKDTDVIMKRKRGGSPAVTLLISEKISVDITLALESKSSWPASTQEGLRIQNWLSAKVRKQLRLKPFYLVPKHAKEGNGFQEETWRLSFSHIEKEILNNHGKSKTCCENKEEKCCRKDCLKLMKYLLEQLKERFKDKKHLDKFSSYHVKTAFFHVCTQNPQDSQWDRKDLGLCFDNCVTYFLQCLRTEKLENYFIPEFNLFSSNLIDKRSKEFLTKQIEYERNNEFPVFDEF

In the case of `CC(C)C[C@@H]1NC(=O)[C@H](CCCNC(=N)N)NC(=O)[C@H](C(C)C)NC(=O)[C@@H]2CCCN2C(=O)[C@@H](Cc2ccccc2)NC(=O)[C@H](CC(C)C)NC(=O)[C@H](CCCNC(=N)N)NC(=O)[C@H](C(C)C)NC(=O)[C@H](C)NC(=O)[C@@H](Cc2ccccc2)NC1=O` [XQ2, Cyclo (LfAVRLfPVR)] (cyclo(L[dF]AVRL[dF]PVR)), the “binding to hcGAS-FL (D191R), SPR” value at hcGAS-FL (D191R) mutant is on record as “markedly reduced the binding affinity of XQ2 with cGAS; also recorded: could not be determined by saturation binding”.
`CC(C)C[C@@H]1NC(=O)[C@H](CCCNC(=N)N)NC(=O)[C@H](C(C)C)NC(=O)[C@@H]2CCCN2C(=O)[C@@H](Cc2ccccc2)NC(=O)[C@H](CC(C)C)NC(=O)[C@H](CCCNC(=N)N)NC(=O)[C@H]([C@@H](C)O)NC(=O)[C@H](C)NC(=O)[C@@H](Cc2ccccc2)NC1=O` [XQ2B] (cyclo([dF]ATRL[dF]PVRL)): in the assay with Trex1^-/- mice (10 mg/kg i.v. every other day), the “serum level of antinuclear antibody” value is “markedly reduced by XQ2B treatment”. In the assay with Trex1^-/- mice (setting [1]), the “heart Ifnb1, Cxcl10 and Il6 mRNA” value is “significantly suppressed the mRNA level of Ifnb1, Cxcl10 and Il6 caused by Trex1 deficiency”; the “tissue inflammation, H&E” value is “ameliorates rather than reverses the systemic inflammation in Trex1-/- mice; also recorded: significantly attenuated the inflammation”. The “survival of Trex1^-/- mice” value in the assay on Trex1^-/- mice (10 mg/kg i.v. every other day, up to 11 days, n = 10, 3 of 10 untreated died) is recorded as “none of the 10 mice treated with XQ2B died during treatment”. In the assay with Trex1^-/- mice (KO(XQ2B)), the “Score per animal, Heart (Fig. 7d)” value was 5 (2×) and 8 (2×) and 6 and 4 and 7 and 9; the “Score per animal, Kidney (Fig. 7d)” value was 3 (2×) and 6 and 5 (2×) and 2 and 4 and 7; the “Score per animal, Muscle (Fig. 7d)” value is 4 (3×) and 2 and 6 and 3 (2×) and 5; the “Score per animal, Stomach (Fig. 7d)” value was 3 and 8 (2×) and 6 and 9 and 5 (2×) and 7. The “Score per animal, Tongue (Fig. 7d)” value in the assay on Trex1^-/- mice (KO(XQ2B)) is 3 and 7 (2×) and 8 and 5 (2×) and 6 and 4. Moreover, in the assay with Trex1^-/- mice (Trex1 KO+XQ2B, per animal), the “Cxcl10 mRNA level (Fig. 7e)” value was 99.6532 and 144.536 and 126.503 and 174.75 and 186.166; the “Ifnb1 mRNA level (Fig. 7e)” value was 12.3782 and 6.326 and 6.444 and 5.852 and 6.524; the “Il6 mRNA level (Fig. 7e)” value is 3.8548 and 4.605 and 4.215 and 10.789 and 5.351.
